Assays:
[1] = target: T1, EGFR wild type (EGFR WT) (Homo sapiens (Human), UniProt P00533); test: Cellular phosphorylation assay, EGF-stimulated EGFR phosphorylation (Y1068) in engineered NIH 3T3 cells, Odyssey imaging, Assay 5 (footnote 1); type: cell-based; conditions: values marked with footnote 1
Protocol: NIH 3T3 cells were engineered to express ErbB2 with Exon 20 YVMA insertion (HER2-YVMA (SEQ ID NO: 2); Assay 4) or EGFR wild type (EGFR WT; Assay 5, footnote 1) with constructs obtained from GenScript and grown in DMEM supplemented with 10% fetal bovine serum and 15 μg/ml blasticidin. Cells were plated in 96-well plates at 40,000 or 45,000 cells/well for HER2-YVMA (SEQ ID NO: 2) and EGFR WT assays, respectively, and allowed to attach overnight at 37° C./5% CO2. Serially diluted compounds were added to the plates for 1 hour at 37° C./5% CO2. EGFR WT cells were stimulated with 100 ng/ml rEGF for an additional 10 minutes at 37° C./5% CO2. After compound incubation, medium was removed from the cells, which were then fixed in 3.7% formaldehyde in PBS at room temperature for 20 minutes. Following a wash with PBS, cells were permeabilized with 100% methanol at room temperature for 10 minutes. Cells were then washed with PBS/0.05% Tween-20 and blocked with Odyssey blocking buffer (LI-COR Biosciences) for at least 1 hour at room temperature. Antibodies to phosphorylated ErbB2 (Y1196, Cell Signaling #6942) or phosphorylated EGFR (Y1068, Cell Signaling #3777) and GAPDH (Millipore #MAB374) were added to the cells in blocking buffer containing 0.05% azide and incubated overnight at 4° C. After washing with PBS/0.05° i° Tween-20, the cells were incubated with fluorescently labeled secondary anti-rabbit antibody (LiCOR, IRDye 800CW #926-32211) and anti-mouse antibody (Molecular Probes, Alexa Fluor 680 #A21058) for 1 hour at room temperature in the dark. Cells were then washed and analyzed for fluorescence at both wavelengths using the Odyssey Infrared Imaging System (LI-COR Biosciences). Phosphorylated ErbB2 and EGFR signal was normalized to GAPDH signal to generate curves and calculate IC50 values.

[2] = target: T2, MDR1 (P-gp) (Homo sapiens (Human), UniProt P08183); test: MDR1 transfected MDCKII canine Mdr1 knockout permeability/efflux, Assay 7; conditions: dog, MDCK-MDR1
[3] = target: EGFR (Homo sapiens (Human), UniProt P00533); test: ErbB enzyme assay (CisBio HTRF KinEASE-TK), Assay 3; type: biochemical
In short: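 Inhibition is measured as reduced peptide phosphorylation by HTRF KinEASE-TK at 1 mM ATP and 250 nM substrate, 30 min at 22 °C. Values are IC50s from a 4-parameter logistic fit.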

[4] = target: T2, MDR1 (P-gp); test: MDR1 transfected LLC-PK1 permeability/efflux, Assay 6; conditions: pig, LLC-PK1, Assay 6 Pe Ratio, efflux ratio Papp(B-A)/Papp(A-B), MDR1 transfected LLC-PK1
[5] = target: ErbB2 WT (Homo sapiens (Human), UniProt P04626); test: ErbB enzyme assay (CisBio HTRF KinEASE-TK), Assay 2; type: biochemical
In short: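 ErbB2 phosphorylates 250 nM biotin-TK substrate at 1 mM ATP in 25 mM HEPES pH 7.4, 10 mM MgCl2, 0.01% Triton X-100 and 2% DMSO, for 30 min at 22 °C. Product is detected by HTRF with Sa-XL665 and TK-Ab-Cryptate. Percent of control is set by DMSO-only wells and pre-quenched wells.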

[6] = target: ErbB2 insYVMA (HER2-YVMA, SEQ ID NO: 2) (Homo sapiens, UniProt P04626, INS775YVMA/P1170A); test: biochemical; conditions: ErbB2 insYVMA enzyme assay; read-out: Assay 1 IC50
[7] = target: ErbB2 with Exon 20 YVMA insertion (HER2-YVMA) (Homo sapiens (Human), UniProt P04626, INS775YVMA); test: Cellular phosphorylation assay, constitutive ErbB2 phosphorylation (Y1196) in engineered NIH 3T3 cells, Assay 4; type: cell-based
In short: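 Engineered NIH 3T3 cells expressing HER2-YVMA treated with compounds 1 h at 37 °C, then formaldehyde-fixed and methanol-permeabilized. pErbB2 Y1196 detected by in-cell infrared immunofluorescence, normalized to GAPDH. IC50 from the normalized curves.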

[8] = target: T1, EGFR wild type (EGFR WT); test: Cellular phosphorylation assay, EGF-stimulated EGFR phosphorylation in engineered NIH 3T3 cells, Phospho-EGFR DuoSet IC ELISA, Assay 5; type: cell-based
In short: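 NIH 3T3 cells expressing EGFR WT (20,000/well, attached overnight) were exposed to serially diluted compound for 1 h at 37 °C, then stimulated with 100 ng/ml rEGF for 10 min. Phospho-EGFR in lysates measured by sandwich ELISA optical density; IC50 from curves.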

[9] = target: T3, BCRP (Homo sapiens (Human), UniProt Q9UNQ0); test: BCRP transfected MDCKII permeability/efflux, Assay 8; type: in vitro ADME; conditions: dog, efflux ratio Papp(B-A)/Papp(A-B), read-out: Assay 8 Pe Ratio
Protocol: BCRP transfected MDCKII cells (Assay 8) and BCRP transfected MDCKII canine Mdr1 knockout cells (Assay 9) were cultured and plated according to manufacturer's recommendations.
Both positive and negative controls were used to assess functionality of P-gp or BCRP efflux in the assays. Stock solutions for assay controls and the test article were prepared in DMSO for final test concentration of 1 μM. Final organic concentration in the assay was 1%. All dosing solutions contained 10 μM lucifer yellow to monitor MDCKII cell monolayer integrity.
For the apical to basolateral determination (A to B), 75 μL of the test article in transport buffer were added to the apical side of the individual transwells and 250 μL of basolateral media, without compound or lucifer yellow, were added to each well. For the basolateral to apical determination (B to A), 250 μL of test article in transport buffer were added to each well and 75 μL transport buffer, without compound or lucifer yellow, were added to each transwell. All tests were performed in triplicate, and each compound was tested for both apical to basolateral and basolateral to apical transport. The plates were incubated for 2 hours on a Lab-Line Instruments Titer Orbital Shaker (VWR, West Chester, PA) at 50 rpm and 37° C. with 5% CO2. All culture plates were removed from the incubator, 50 μL of media were removed from the apical and basolateral portion of each well, and added to 150 μL of 1 μM labetalol in 2:1 acetonitrile (ACN): H2O, v/v.
The plates were read using a Molecular Devices (Sunnyvale, CA) Gemini Fluorometer to evaluate the lucifer yellow concentrations at excitation/emission wavelengths of 425/535 nm. […] The plates were sealed, and the contents of each well analyzed by LC MS/MS. The compound concentrations were determined from the ratio of the peak areas of the compound to the internal standard (labetalol) in comparison to the dosing solution.
A MDS Sciex API 4000 (Applied Biosystems, Foster City, CA) mass spectrometer was used for detection of the analytes in the ion spray positive mode. Analyte responses were measured by multiple reaction monitoring (“MRM”) of transitions unique to each compound (the protonated precursor ion and selected product ions for each test article and m/z 329 to m/z 162 for labetalol, the internal standard.
The total run time, including re-equilibration, for a single injection was 1.2 minutes. […] The total run time, including re-equilibration, for a single injection was 0.61 minutes.
An efflux ratio is calculated from the mean apical to basolateral (A-B) Papp data and basolateral to apical (B-A) Papp data: Efflux ratio=Papp(B−A)/Papp(A−B)

[10] = target: T3, BCRP; test: BCRP transfected MDCKII canine Mdr1 knockout permeability/efflux, Assay 9; conditions: dog, Assay 9 Pe Ratio, efflux ratio Papp(B-A)/Papp(A-B), BCRP transfected MDCKII canine Mdr1 knockout

T2 sequence (P08183 whole entry): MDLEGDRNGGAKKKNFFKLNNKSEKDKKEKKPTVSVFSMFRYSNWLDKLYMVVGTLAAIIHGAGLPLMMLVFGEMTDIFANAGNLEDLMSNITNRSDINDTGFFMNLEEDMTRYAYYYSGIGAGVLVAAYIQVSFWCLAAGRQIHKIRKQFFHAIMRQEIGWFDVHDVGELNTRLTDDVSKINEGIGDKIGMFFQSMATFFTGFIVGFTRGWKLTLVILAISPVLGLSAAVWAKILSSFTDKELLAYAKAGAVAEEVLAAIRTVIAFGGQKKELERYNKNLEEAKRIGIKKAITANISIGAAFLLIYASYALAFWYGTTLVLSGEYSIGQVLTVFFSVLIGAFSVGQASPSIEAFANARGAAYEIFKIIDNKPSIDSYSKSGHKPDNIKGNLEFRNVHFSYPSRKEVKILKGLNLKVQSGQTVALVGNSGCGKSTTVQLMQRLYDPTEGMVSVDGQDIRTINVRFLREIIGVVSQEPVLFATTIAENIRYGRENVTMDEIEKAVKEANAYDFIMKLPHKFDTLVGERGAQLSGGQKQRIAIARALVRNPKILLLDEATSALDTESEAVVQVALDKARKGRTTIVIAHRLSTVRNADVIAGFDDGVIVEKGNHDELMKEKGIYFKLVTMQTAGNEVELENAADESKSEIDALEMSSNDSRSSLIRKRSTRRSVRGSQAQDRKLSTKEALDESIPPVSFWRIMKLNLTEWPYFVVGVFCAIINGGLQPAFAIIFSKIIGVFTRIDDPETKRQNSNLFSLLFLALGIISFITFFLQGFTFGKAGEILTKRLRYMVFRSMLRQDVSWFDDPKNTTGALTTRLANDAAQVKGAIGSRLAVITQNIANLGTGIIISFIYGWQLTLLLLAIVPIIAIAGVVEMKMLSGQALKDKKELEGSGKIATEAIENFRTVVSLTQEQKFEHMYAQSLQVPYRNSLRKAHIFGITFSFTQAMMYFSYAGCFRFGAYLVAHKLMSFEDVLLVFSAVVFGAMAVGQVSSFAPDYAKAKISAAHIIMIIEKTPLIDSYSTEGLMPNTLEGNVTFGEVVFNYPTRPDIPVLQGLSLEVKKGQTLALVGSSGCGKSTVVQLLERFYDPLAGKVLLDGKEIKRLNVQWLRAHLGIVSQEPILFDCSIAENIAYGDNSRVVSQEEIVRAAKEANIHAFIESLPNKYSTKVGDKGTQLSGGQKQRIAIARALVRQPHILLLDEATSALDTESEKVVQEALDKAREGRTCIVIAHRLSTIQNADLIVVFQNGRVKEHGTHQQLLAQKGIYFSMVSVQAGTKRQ
T3 sequence (Q9UNQ0 whole entry): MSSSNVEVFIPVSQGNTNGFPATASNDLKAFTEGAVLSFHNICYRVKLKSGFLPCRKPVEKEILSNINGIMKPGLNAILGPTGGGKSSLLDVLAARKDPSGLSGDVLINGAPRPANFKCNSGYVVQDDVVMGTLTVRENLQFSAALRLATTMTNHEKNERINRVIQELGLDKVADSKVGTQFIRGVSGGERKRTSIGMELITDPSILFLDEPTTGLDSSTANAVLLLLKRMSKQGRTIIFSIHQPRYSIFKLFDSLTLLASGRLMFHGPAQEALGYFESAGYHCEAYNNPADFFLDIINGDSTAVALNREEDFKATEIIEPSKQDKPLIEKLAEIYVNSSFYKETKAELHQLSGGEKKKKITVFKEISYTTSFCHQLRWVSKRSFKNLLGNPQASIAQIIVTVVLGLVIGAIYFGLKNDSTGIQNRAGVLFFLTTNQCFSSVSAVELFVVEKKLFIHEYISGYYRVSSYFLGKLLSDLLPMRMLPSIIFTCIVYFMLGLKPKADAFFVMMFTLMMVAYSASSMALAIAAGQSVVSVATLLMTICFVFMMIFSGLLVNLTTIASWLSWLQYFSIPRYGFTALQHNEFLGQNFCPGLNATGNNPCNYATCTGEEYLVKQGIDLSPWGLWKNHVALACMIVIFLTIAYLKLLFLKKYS
ErbB2 WT, sequence (P04626 23-1255): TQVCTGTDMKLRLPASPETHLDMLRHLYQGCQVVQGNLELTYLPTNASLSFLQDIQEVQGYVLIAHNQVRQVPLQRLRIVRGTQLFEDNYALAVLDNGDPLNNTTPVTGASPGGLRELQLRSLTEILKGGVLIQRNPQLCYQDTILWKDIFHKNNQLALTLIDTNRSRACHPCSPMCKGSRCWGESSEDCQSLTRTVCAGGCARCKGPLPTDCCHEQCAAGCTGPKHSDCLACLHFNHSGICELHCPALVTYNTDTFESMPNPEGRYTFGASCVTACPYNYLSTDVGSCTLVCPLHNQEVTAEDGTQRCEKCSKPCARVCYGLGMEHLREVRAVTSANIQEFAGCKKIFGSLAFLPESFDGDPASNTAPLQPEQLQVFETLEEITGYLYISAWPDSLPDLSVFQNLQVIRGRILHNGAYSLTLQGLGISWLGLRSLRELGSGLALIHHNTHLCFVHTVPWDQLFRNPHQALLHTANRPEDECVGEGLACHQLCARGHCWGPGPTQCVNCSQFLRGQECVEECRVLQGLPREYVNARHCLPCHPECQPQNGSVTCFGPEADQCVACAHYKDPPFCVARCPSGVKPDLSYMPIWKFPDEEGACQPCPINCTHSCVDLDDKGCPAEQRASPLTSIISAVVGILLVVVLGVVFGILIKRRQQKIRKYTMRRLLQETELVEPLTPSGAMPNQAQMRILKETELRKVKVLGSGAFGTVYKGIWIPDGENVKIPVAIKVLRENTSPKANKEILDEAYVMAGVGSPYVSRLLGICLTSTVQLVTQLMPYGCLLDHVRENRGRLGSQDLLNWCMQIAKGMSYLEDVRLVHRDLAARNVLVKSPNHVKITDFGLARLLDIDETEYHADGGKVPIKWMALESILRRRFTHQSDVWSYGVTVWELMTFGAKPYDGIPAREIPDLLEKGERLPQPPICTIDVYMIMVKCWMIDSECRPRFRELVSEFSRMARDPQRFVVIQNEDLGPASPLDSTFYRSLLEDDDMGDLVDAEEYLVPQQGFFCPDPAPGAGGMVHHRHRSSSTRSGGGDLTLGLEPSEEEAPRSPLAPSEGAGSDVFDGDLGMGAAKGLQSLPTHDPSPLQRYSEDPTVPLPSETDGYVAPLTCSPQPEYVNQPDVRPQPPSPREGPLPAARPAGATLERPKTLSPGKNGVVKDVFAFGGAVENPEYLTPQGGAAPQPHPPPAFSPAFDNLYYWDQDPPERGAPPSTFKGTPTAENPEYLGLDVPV
ErbB2 insYVMA (HER2-YVMA, SEQ ID NO: 2), sequence (P04626 with tags, fused parts or gaps INS775YVMA/P1170A limits assumed): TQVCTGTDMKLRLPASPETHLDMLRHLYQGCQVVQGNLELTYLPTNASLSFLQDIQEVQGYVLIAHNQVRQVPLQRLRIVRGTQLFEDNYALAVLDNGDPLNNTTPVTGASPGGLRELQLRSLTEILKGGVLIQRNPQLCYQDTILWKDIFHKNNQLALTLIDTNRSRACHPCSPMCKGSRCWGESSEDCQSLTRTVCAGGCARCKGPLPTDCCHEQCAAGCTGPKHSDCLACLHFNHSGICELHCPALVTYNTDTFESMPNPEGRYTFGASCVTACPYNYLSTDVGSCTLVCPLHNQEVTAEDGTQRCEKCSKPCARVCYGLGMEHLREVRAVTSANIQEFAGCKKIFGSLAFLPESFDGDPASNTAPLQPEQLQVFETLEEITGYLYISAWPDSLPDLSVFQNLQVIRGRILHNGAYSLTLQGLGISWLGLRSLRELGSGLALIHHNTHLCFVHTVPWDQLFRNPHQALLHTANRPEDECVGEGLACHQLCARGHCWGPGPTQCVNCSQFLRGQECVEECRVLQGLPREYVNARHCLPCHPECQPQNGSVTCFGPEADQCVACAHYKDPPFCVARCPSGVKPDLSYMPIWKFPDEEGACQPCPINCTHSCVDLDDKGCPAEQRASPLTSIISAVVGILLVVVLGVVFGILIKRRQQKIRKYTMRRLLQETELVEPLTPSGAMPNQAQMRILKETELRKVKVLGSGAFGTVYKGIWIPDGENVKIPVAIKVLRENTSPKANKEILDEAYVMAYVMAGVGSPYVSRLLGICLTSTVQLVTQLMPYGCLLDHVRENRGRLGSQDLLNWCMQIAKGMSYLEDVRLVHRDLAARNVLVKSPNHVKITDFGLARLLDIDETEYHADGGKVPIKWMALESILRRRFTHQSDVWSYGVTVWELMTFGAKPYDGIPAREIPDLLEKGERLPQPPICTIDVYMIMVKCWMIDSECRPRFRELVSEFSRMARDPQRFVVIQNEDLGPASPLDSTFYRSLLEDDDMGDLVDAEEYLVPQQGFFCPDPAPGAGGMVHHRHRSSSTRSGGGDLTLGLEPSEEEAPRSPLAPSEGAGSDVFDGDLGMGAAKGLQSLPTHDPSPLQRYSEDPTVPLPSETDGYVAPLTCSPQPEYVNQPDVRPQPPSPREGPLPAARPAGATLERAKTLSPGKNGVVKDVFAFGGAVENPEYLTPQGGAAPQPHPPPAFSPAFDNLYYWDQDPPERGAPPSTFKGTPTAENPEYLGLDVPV

Structure (SMILES) | IC50 [1] | efflux ratio at 2 h, 1 μM [2] | IC50 [3] | efflux ratio at 2 h, 1 μM [4] | IC50 [5] | IC50 [6] | IC50 [7] | IC50 [8] | efflux ratio at 2 h, 1 μM [9] | efflux ratio at 2 h, 1 μM [10]
Cc1cc(Nc2ncnc3cnc(N4CCOCC4)nc23)ccc1Oc1ccc2c(c1)ncn2C [Example 9, N-(3-methyl-4-((1-methyl-1H-benzo[d]imidazol-5-yl)oxy)phenyl)-6-morpholinopyrimido[5,4-d]pyrimidin-4-amine 2,2,2-trifluoroacetate] | 5000 nM | 1.2 | ≥ 10000 nM | 0.8 | 64 nM | 13.6 nM | 4.9 nM |  |  | 
CSc1ncc2ncnc(Nc3ccc(Oc4ccc5conc5c4)c(C)c3)c2n1 [Example 10, N-(4-(benzo[c]isoxazol-6-yloxy)-3-methylphenyl)-6-(methylthio)pyrimido[5,4-d]pyrimidin-4-amine] | 5000 nM |  | ≥ 10000 nM |  | 144 nM | 49 nM | 671 nM |  |  | 
CSc1ncc2ncnc(Nc3ccc(Oc4ccc5csnc5c4)c(C)c3)c2n1 [Example 11, N-(4-(benzo[c]isothiazol-6-yloxy)-3-methylphenyl)-6-(methylthio)pyrimido[5,4-d]pyrimidin-4-amine 2,2,2-trifluoroacetate] | 5000 nM | 0.7 | 925 nM | 0.7 | 97.4 nM | 54.4 nM | 95.1 nM |  |  | 
CSc1ncc2ncnc(Nc3ccc(Oc4ccc5c(C)onc5c4)c(C)c3)c2n1 [Example 12, N-(3-methyl-4-((3-methylbenzo[c]isoxazol-6-yl)oxy)phenyl)-6-(methylthio)pyrimido[5,4-d]pyrimidin-4-amine] | 5000 nM |  | ≥ 10000 nM |  | 275 nM | 64.2 nM | 403 nM |  |  | 
Cc1cc(Nc2ncnc3cnc(NC4CCC4)nc23)ccc1Oc1ccc2c(c1)ncn2C [Example 14, N2-cyclobutyl-N8-(3-methyl-4-((1-methyl-1H-benzo[d]imidazol-5-yl)oxy)phenyl)pyrimido[5,4-d]pyrimidine-2,8-diamine] |  |  | ≥ 10000 nM | 1.3 | 85.9 nM | 56.2 nM | 37 nM | ≥ 5000 nM | 0.9 | 
Cc1cc(Nc2ncnc3cnc(N4C[C@@H]5COC[C@@H]54)nc23)ccc1Oc1ccc2c(c1)ncn2C [Example 348] |  | 1.4 | ≥ 10000 nM |  | 69.1 nM | 40.1 nM | 14.5 nM | ≥ 5000 nM |  | 5
Cn1cnc2cc(Oc3ccc(Nc4ncnc5cnc(N6CC[C@H](CC#N)C6)nc45)cc3Cl)ccc21 [Example 358] |  | 1.6 | ≥ 10000 nM |  | 35.8 nM | 53.2 nM | 19.2 nM | ≥ 5000 nM |  | 8.9
Cc1cc(Nc2ncnc3cnc(N(C)CC4COC4)nc23)ccc1Oc1ccc2c(c1)ncn2C [Example 402] |  | 1.4 | ≥ 10000 nM |  | 14.9 nM | 39.7 nM | 14.9 nM | ≥ 5000 nM |  | 2.3

Reference: patent US11834453B2, “Substituted pyrimido[5,4-d]pyrimidines as HER2 inhibitors” (Array BioPharma Inc., priority 2020, dated 2023)
